Reference: US20080027113A1, “Methods of Using and Compositions Comprising Immunomodulatory Compounds for Treatment and Management of Macular Degeneration” (priority 2003, published 2008)

What was measured:
IL10 production = test: Production of anti-inflammatory cytokine IL10 by PBMC; assay type: cell-based; details: result in words
TNF-α production [1] = test: Inhibition of TNF-α production following LPS-stimulation of human PBMC; assay type: cell-based; details: for inhibition of LPS-stimulated production of TNF-α by PBMC: result in words; for IC50: human PBMC, LPS-stimulated, read-out: IC50 for inhibiting production of TNF-α following LPS-stimulation of PBMC
IL1β production = test: LPS-stimulated production of IL1β by PBMC; details: result in words
IL6 production = test: LPS-stimulated production of IL6 by PBMC; assay type: cell-based; details: result in words
TNF-α production [2] = test: Inhibition of TNF-α production following LPS-stimulation of human whole blood; assay type: cell-based; details: LPS-stimulated, read-out: IC50 for inhibiting production of TNF-α following LPS-stimulation of human whole blood
[3] = system: patients with macular degeneration; test: Clinical study in patients with macular degeneration, adjuvant to photodynamic therapy with verteporfin; assay type: in vivo, human; details: about 10 mg/day for 20 weeks as adjuvant to verteporfin photodynamic therapy
Description: Immunomodulatory compounds are administered in an amount of about 0.1 to about 25 mg per day to patients with macular degeneration. In a specific embodiment, clinical studies are performed with forty patients with macular degeneration, who are divided into two groups. The first group receives conventional treatment for closing the leaking choroidal vessels (characteristic of this disease) by photodynamic therapy with verteporfin. Ophthalmol 1999 (117): 1329-1345.
Progressive visual loss follows which requires the photodynamic therapy to be repeated.

IC50 (TNF-α production [1]) [nM] | IC50 (TNF-α production [2]) [nM] | SMILES | production of the anti-inflammatory cytokine IL10 (IL10 production) | inhibition of LPS-stimulated production of TNF-α by PBMC (TNF-α production [1]) | inhibition of LPS-stimulated production of IL1β by PBMC (IL1β production) | inhibition of LPS-stimulated production of IL6 by PBMC (IL6 production) | effect on neovascular cascade / duration of photodynamic therapy effect [3]
~24 | ~25 | Nc1cccc2c1C(=O)N(C1CCC(=O)NC1=O)C2=O (stereo not shown) | increased production | dose-dependent inhibition | dose-dependent inhibition | dose-dependent inhibition | 
~100 | ~480 | Nc1cccc2c1CN(C1CCC(=O)NC1=O)C2=O (stereo not shown) | increased production | dose-dependent inhibition | dose-dependent inhibition | dose-dependent inhibition | sufficiently hindered
